Here are results for 29 compounds from patent US8324390B2, “Tetrazole-substituted anthranilamides as pesticides” (Bayer CropScience AG, priority 2008, dated 2012).

Data set [1] is described as follows: log P determination by HPLC (EEC Directive 79/831 Annex V.A8). Format: physicochemical. As to the method:
The measurements were carried out using an Agilent 1100 LC system with a 50*4.6 Zorbax Eclipse C18 1.8 μm column (oven temperature 55° C., flow rate 2.0 ml/min).
The following mobile phases were used:
Mobile phase A: acetonitrile+1000 μl of formic acid/l
Mobile phase B: Millipore water+900 μl of formic acid/l

Data set [2] deals with caterpillars of the armyworm (Spodoptera frugiperda). Briefly: Spodoptera frugiperda test (SPODFR spray treatment). Format: in vivo. As to conditions: Spodoptera frugiperda, in Zea mays, foliar, read-out: effect in % (caterpillars killed). The text has this: (§1) Solvent: 78.0 parts by weight of acetone
The test system of data set [3] is green peach aphid (Myzus persicae). Kind of data set: Myzus test (MYZUPE spray treatment). Format: in vivo. As to conditions: Myzus persicae, in Brassica rapa, foliar, read-out: effect in % (aphids killed).
Description: Solvent: 78 parts by weight of acetone
as §1

The subject of data set [4] is larvae of the mustard beetle (Phaedon cochleariae). Kind of data set: Phaedon test (PHAECO spray treatment). As to conditions: Phaedon cochleariae, in Brassica rapa, foliar, read-out: effect in % (beetle larvae killed).

Like-named read-outs stand apart in the source and are kept apart here.

In the case of `Cc1cc(C#N)cc(C(=O)NC2CC2)c1NC(=O)c1cc(Cn2nnc(C(F)(F)C(F)(F)C(F)(F)F)n2)nn1-c1ncccc1Cl` [Example 113], the chromatographic logP in data set [1] (by HPLC according to EEC Directive 79/831 Annex V.A8, read-out: log P) was determined as 3.58. Further, the pest or weed control at 100 g/ha in data set [2], in data set [3] and in data set [4] was at least 80% each time.

In data set [1] (log P), `Cc1cc(Br)cc(C(=O)NC(C)(C)C)c1NC(=O)c1cc(Cn2nnc(C(F)(F)F)n2)nn1-c1ncccc1Cl` [Example 114] gave a chromatographic logP of 4. In addition, the pest or weed control at 100 g/ha in data set [2], in data set [3] and in data set [4] was at least 80% in each case.

`Cc1cc(Cl)cc(C(=O)NC(C)C)c1NC(=O)c1cc(Cn2nnc(C(F)(F)C(F)(F)F)n2)nn1-c1ncccc1Cl` [Example 129] registered a chromatographic logP in data set [1] (log P) of 3.94. For the same compound, the pest or weed control at 100 g/ha in data set [2], in data set [3] and in data set [4] was at least 80% in each case.

For the compound `Cc1cc(C#N)cc(C(=O)NC(C)C2CC2)c1NC(=O)c1cc(Cn2nnc(C(F)(F)C(F)(F)F)n2)nn1-c1ncccc1Cl` (centres unmarked) [Example 134], the chromatographic logP in data set [1] (log P) was 3.84. Also, the pest or weed control at 100 g/ha in data set [2], in data set [3] and in data set [4] was at least 80% each time.

With `CC(C)NC(=O)c1cc(Cl)cc(Cl)c1NC(=O)c1cc(Cn2nnc(C(F)(F)C(F)(F)F)n2)nn1-c1ncccc1Cl` [Example 153], the chromatographic logP in data set [1] (log P) amounted to 3.81. The pest or weed control at 100 g/ha in data set [2], in data set [3] and in data set [4] was at least 80% each time.

In data set [1] (log P), `CSC[C@H](C)NC(=O)c1cc(Cl)cc(Cl)c1NC(=O)c1cc(Cn2nnc(C(F)(F)C(F)(F)F)n2)nn1-c1ncccc1Cl` [Example 154] displayed a chromatographic logP of 4.02. Also, the pest or weed control at 100 g/ha in data set [2], in data set [3] and in data set [4] was at least 80% in each case.

In data set [1] (log P), `N#CCNC(=O)c1cc(Cl)cc(Cl)c1NC(=O)c1cc(Cn2nnc(C(F)(F)C(F)(F)F)n2)nn1-c1ncccc1Cl` [Example 158] showed a chromatographic logP of 3.32. The pest or weed control at 100 g/ha in data set [2], in data set [3] and in data set [4] was at least 80% throughout.

In the case of `Cc1cc(C#N)cc(C(=O)NCCC(F)(F)F)c1NC(=O)c1cc(Cn2nnc(C(F)(F)F)n2)nn1-c1ncccc1Cl` [Example 159], in data set [1] (log P), the chromatographic logP stood at 3.22. The pest or weed control at 100 g/ha in data set [2], in data set [3] and in data set [4] was at least 80% in each case.

In data set [1] (log P), `Cc1cc(C#N)cc(C(=O)NC(C)(C)C)c1NC(=O)c1cc(Cn2nnnc2C(F)(F)F)nn1-c1ncccc1Cl` [Example 160] registered a chromatographic logP of 3.05. The pest or weed control at 100 g/ha in data set [2], in data set [3] and in data set [4] was at least 80% each time.

With `CNC(=O)c1cc(Cl)cc(C)c1NC(=O)c1cc(Cn2nnnc2C(F)(F)F)nn1-c1ncccc1Cl` [Example 161], the chromatographic logP in data set [1] (log P) came to 2.63. The pest or weed control at 100 g/ha in data set [2], in data set [3] and in data set [4] was at least 80% each time.

As to `Cc1cc(Cl)cc(C(=O)NC2CC2)c1NC(=O)c1cc(Cn2nnnc2C(F)(F)F)nn1-c1ncccc1Cl` [Example 163], the chromatographic logP in data set [1] (log P) came out at 2.89. In addition, the pest or weed control at 100 g/ha in data set [2], in data set [3] and in data set [4] was at least 80% in each case.

For `Cc1cc(C#N)cc(C(=O)NC(C)C)c1NC(=O)c1cc(Cn2nnnc2C(F)(F)F)nn1-c1ncccc1Cl` [Example 165], the chromatographic logP in data set [1] (log P) worked out at 2.72. Besides, the pest or weed control at 100 g/ha in data set [2], in data set [3] and in data set [4] was at least 80% each time.

In turn, `Cc1cc(C#N)cc(C(=O)NC2CC2)c1NC(=O)c1cc(Cn2nnnc2C(F)(F)F)nn1-c1ncccc1Cl` [Example 166] returned a chromatographic logP in data set [1] (log P) of 2.53. The pest or weed control at 100 g/ha in data set [2], in data set [3] and in data set [4] was at least 80% in each case.

`CNC(=O)c1cc(F)cc(C)c1NC(=O)c1cc(Cn2nnnc2C(F)(F)F)nn1-c1ncccc1Cl` [Example 167] displayed a chromatographic logP in data set [1] (log P) of 2.32. Also, the pest or weed control at 100 g/ha in data set [2], in data set [3] and in data set [4] was at least 80% throughout.

The compound `Cc1cc(F)cc(C(=O)NC(C)C)c1NC(=O)c1cc(Cn2nnnc2C(F)(F)F)nn1-c1ncccc1Cl` [Example 168] registered a chromatographic logP in data set [1] (log P) of 2.76. The pest or weed control at 100 g/ha in data set [2], in data set [3] and in data set [4] was at least 80% in each case.

Turning to `Cc1cc(F)cc(C(=O)NC2CC2)c1NC(=O)c1cc(Cn2nnnc2C(F)(F)F)nn1-c1ncccc1Cl` [Example 169], in data set [1] (log P), the chromatographic logP stood at 2.57. In addition, the pest or weed control at 100 g/ha in data set [2], in data set [3] and in data set [4] was at least 80% in each case.

In data set [1] (log P), `CNC(=O)c1cc(Br)cc(C)c1NC(=O)c1cc(Cn2nnnc2C(F)(F)F)nn1-c1ncccc1Cl` [Example 170] showed a chromatographic logP of 2.72. In addition, the pest or weed control at 100 g/ha in data set [2], in data set [3] and in data set [4] was at least 80% each time.

In turn, `Cc1cc(Br)cc(C(=O)NC(C)C)c1NC(=O)c1cc(Cn2nnnc2C(F)(F)F)nn1-c1ncccc1Cl` [Example 171] gave a chromatographic logP in data set [1] (log P) of 3.22. Besides, the pest or weed control at 100 g/ha in data set [2], in data set [3] and in data set [4] was at least 80% throughout.

As to `CNC(=O)c1cc(I)cc(C)c1NC(=O)c1cc(Cn2nnnc2C(F)(F)F)nn1-c1ncccc1Cl` [Example 172], the chromatographic logP in data set [1] (log P) worked out at 2.86. Moreover, the pest or weed control at 100 g/ha in data set [2], in data set [3] and in data set [4] was at least 80% each time.

On to `Cc1cc(I)cc(C(=O)NC(C)C)c1NC(=O)c1cc(Cn2nnnc2C(F)(F)F)nn1-c1ncccc1Cl` [Example 173], for which the chromatographic logP in data set [1] (log P) is 3.36. Moreover, the pest or weed control at 100 g/ha in data set [2], in data set [3] and in data set [4] was at least 80% each time.

In data set [1] (log P), `Cc1cc(I)cc(C(=O)NC2CC2)c1NC(=O)c1cc(Cn2nnnc2C(F)(F)F)nn1-c1ncccc1Cl` [Example 174] registered a chromatographic logP of 3.12. For the same compound, the pest or weed control at 100 g/ha in data set [2], in data set [3] and in data set [4] was at least 80% each time.

As to `CC(C)(C)NC(=O)c1cc(Cl)cc(Cl)c1NC(=O)c1cc(Cn2nnnc2C(F)(F)F)nn1-c1ncccc1Cl` [Example 177], in data set [1] (log P), the chromatographic logP came to 3.43. Also, the pest or weed control at 100 g/ha in data set [2], in data set [3] and in data set [4] was at least 80% each time.

In the case of `Cc1cc(C)c(NC(=O)c2cc(Cn3nnnc3C(F)(F)F)nn2-c2ncccc2Cl)c(C(=O)NC2CC2)c1` [Example 180], the chromatographic logP in data set [1] (log P) came out at 2.71. The pest or weed control at 100 g/ha in data set [2], in data set [3] and in data set [4] was at least 80% in each case.

In the case of `Cc1cc(Br)cc(C(=O)NC2CC2)c1NC(=O)c1cc(Cn2nnnc2C(F)(F)F)nn1-c1ncccc1Cl` [Example 181], the chromatographic logP in data set [1] (log P) amounted to 2.99. Moreover, the pest or weed control at 100 g/ha in data set [2], in data set [3] and in data set [4] was at least 80% in each case.

As for `Cc1cc(Br)cc(C(=O)NC(C)(C)C)c1NC(=O)c1cc(Cn2nnnc2C(F)(F)F)nn1-c1ncccc1Cl` [Example 182], in data set [1] (log P), the chromatographic logP worked out at 3.62. Besides, the pest or weed control at 100 g/ha in data set [2], in data set [3] and in data set [4] was at least 80% throughout.

As to `Cc1cc(I)cc(C(=O)NC(C)(C)C)c1NC(=O)c1cc(Cn2nnnc2C(F)(F)F)nn1-c1ncccc1Cl` [Example 183], the chromatographic logP in data set [1] (log P) was found to be 3.74. Besides, the pest or weed control at 100 g/ha in data set [2], in data set [3] and in data set [4] was at least 80% throughout.

In data set [1] (log P), `Cc1cc(C#N)cc(C(=O)NC2CCC2)c1NC(=O)c1cc(Cn2nnnc2C(F)(F)F)nn1-c1ncccc1Cl` [Example 186] registered a chromatographic logP of 2.83. The pest or weed control at 100 g/ha in data set [2], in data set [3] and in data set [4] was at least 80% throughout.

For `CCNC(=O)c1cc(C#N)cc(C)c1NC(=O)c1cc(Cn2nnnc2C(F)(F)F)nn1-c1ncccc1Cl` [Example 191], the chromatographic logP in data set [1] (log P) is 2.5. Also, the pest or weed control at 100 g/ha in data set [2], in data set [3] and in data set [4] was at least 80% throughout.

Take `Cc1cc(C#N)cc(C(=O)NC(C2CC2)C2CC2)c1NC(=O)c1cc(Cn2nnnc2C(F)(F)F)nn1-c1ncccc1Cl` [Example 196]: the chromatographic logP in data set [1] (log P) is 3.28. Besides, the pest or weed control at 100 g/ha in data set [2], in data set [3] and in data set [4] was at least 80% each time.
